In PMC7756656, “Discovery of Homobivalent Bitopic Ligands of the Cannabinoid CB2 Receptor” (Chemistry (Weinheim an Der Bergstrasse, Germany), 2020):

Assays:
CB1R (hCB1R) [1] = biological target: T1, CB1R (hCB1R) (Homo sapiens, UniProt P21554); experiment: biochemical; format: HEK-293T membranes; set-up: [3H]CP-55,940 competition radioligand binding, membrane filtration, scintillation counting
T1 construct: gene CNR1; expressed in HEK-293T cells; membrane fractions
Source text: (§1) In vitro binding affinities of the alleged bitopic ligands 18–29 (Table 1) and the corresponding monovalent counterparts 6–17 (Table S1) were obtained from [^3H]CP‐55,940 competition‐binding assays using membrane fractions of the human CB1R and CB2R, respectively, expressed in HEK‐293T cells. […] Addition of the second pharmacophore makes bivalent ligands capable of binding CB2R in a selective manner. Optimal spacer length for N1‐ and N2‐ethyl derivatives is from 10 (n=8) to 14 (n=12) [compound left out] units. S23 Aldrich, Madrid, Spain). Membranes were resuspended in the corresponding buffer and were incubated (90 min at 30 °C) with the radioligand and each compound at a high concentration (40 μM) with the purpose of determining the % of radioligand displacement. […] Nonspecific binding was determined with 10 μM [compound left out] (Sigma-Aldrich, Madrid, Spain) and total radioligand binding by incubation with the membranes in the absence of any compound. Filtration was performed by a Harvester filtermate (PerkinElmer, Boston, MA, USA) with Filtermat A GF/C filters pretreated with polyethylenimine 0.05%. After filtering, the filter was washed nine times with binding buffer and dried, and a melt-on scintillation sheet (MeltilexTM A, PerkinElmer, Boston, MA, USA) was melted onto it. Then, radioactivity was quantified by a [compound left out] scintillation counter (Wallac MicroBeta Trilux, PerkinElmer, Boston, MA, USA). Competition binding data were analyzed by using GraphPad Prism, version 5.02 (GraphPad Software Inc., San Diego, CA, USA), and Ki values are expressed as the mean ± SEM of at least three experiments performed in triplicate for each. 2.2- cAMP determination assays. Determination of cAMP levels in HEK293 cells stably expressing the CB2R was performed using the Lance-Ultra cAMP kit (PerkinElmer) according to the manufacturer’s instructions. Briefly, HEK293 cells expressing the CB2R were dispensed in white 384-well microplates at a density of 5.000 cells per well. Finally, cells were incubated for 60 min at room temperature with HTRF assay reagents, and fluorescence at 665 nm was analyzed on a PHERAstar Flagship microplate reader equipped with an HTRF optical module (BMG Labtech). Data analysis was made based on the fluorescence ratio emitted by the labeled cAMP probe (665 nm) over the light emitted by the europium cryptate-labeled anti-cAMP antibody (620 nm). A standard curve was used to calculate cAMP concentration. Forskolin stimulated cAMP levels were normalized to 100%. Data was analyzed by using […]

CB2R (hCB2R) [2] = biological target: T2, CB2R (hCB2R) (Homo sapiens, UniProt P34972); experiment: biochemical; format: HEK-293T membranes; set-up: [3H]CP-55,940 competition radioligand binding, membrane filtration, scintillation counting
T2 construct: gene CNR2; expressed in HEK-293T cells
Source text: as §1

CB1R (hCB1R) [3] = biological target: T1, CB1R (hCB1R); experiment: biochemical; format: HEK-293T membranes; set-up: [3H]CP-55,940 competition radioligand binding, membrane filtration, scintillation counting; remark: listed apart in the source
Source text: as §1, with “(n=12) methylene” for “(n=12) [compound left out]”, “μM WIN55212-2” for “μM [compound left out]”, “a liquid” for “a [compound left out]”

CB2R (hCB2R) [4] = biological target: T2, CB2R (hCB2R); experiment: biochemical; format: HEK-293T membranes; set-up: [3H]CP-55,940 competition radioligand binding, membrane filtration, scintillation counting; remark: listed apart in the source
Source text: as §1, with “(n=12) methylene” for “(n=12) [compound left out]”, “μM WIN55212-2” for “μM [compound left out]”, “a liquid” for “a [compound left out]”

CB1R (hCB1R) [5] = biological target: T1, CB1R (hCB1R); experiment: [3H]CP-55, […] competition binding, HEK-293T membranes; details: read-out: CB1R Ki [μM]^[b]
CB2R (hCB2R) [6] = biological target: T2, CB2R (hCB2R); experiment: as above; details: read-out: CB2R Ki [μM]^[b]
CB2R (hCB2R) [7] = biological target: T2, CB2R (hCB2R); experiment: inhibition of forskolin-induced cAMP, HEK-293T cells; format: cell-based; details: read-out: Wild type / pEC50 (converted)

T2 sequence (P34972 whole entry): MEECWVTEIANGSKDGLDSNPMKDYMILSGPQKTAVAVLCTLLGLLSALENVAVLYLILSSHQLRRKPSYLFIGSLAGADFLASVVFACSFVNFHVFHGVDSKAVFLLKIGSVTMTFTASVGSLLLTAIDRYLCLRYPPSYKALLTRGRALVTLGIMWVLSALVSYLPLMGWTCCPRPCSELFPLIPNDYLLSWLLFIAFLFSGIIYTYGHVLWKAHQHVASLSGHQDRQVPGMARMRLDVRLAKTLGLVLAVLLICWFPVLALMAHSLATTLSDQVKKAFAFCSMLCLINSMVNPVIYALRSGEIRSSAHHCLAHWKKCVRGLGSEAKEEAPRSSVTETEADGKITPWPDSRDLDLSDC
T1 sequence (P21554 whole entry): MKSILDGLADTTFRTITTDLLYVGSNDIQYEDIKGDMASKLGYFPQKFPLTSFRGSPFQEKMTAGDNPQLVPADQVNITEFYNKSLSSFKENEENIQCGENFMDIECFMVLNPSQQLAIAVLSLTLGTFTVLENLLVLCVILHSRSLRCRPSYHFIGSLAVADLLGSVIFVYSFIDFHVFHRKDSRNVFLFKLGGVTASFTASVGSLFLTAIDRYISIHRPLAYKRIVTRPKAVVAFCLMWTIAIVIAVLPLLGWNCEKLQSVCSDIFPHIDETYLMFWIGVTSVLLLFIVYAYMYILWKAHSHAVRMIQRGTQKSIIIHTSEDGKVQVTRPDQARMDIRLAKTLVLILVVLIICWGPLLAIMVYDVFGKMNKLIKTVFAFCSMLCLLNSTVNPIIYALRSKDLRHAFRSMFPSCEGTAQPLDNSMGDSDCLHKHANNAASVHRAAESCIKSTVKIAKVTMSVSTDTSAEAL

Structure (SMILES) | Ki (CB1R (hCB1R) [1]) [µM] | Ki (CB2R (hCB2R) [2]) [µM] | Ki (CB1R (hCB1R) [5]) [µM] | Ki (CB2R (hCB2R) [6]) [µM] | other results
CCCCCCOc1cc(C(C)(C)CCCCCC)cc2c1-c1c(cnn1CC)C(C)(C)O2 [compound 6, 7-(1,1-Dimethylheptyl)-1-ethyl-9-hexyloxy1,4-Dihydro-4,4-dimethylchromeno[4,3-c]pyrazole] | > 40 | > 40 | – | – | –
CCCCCCOc1cc(C(C)(C)CCCCCC)cc2c1-c1nn(CC)cc1C(C)(C)O2 [compound 7, 7-(1,1-Dimethylheptyl)-2-ethyl-9-hexyloxy-2,4-dihydro-4,4-dimethylchromeno[4,3-c]pyrazole] | > 40 | > 40 | – | – | –
CCCCCCCCOc1cc(C(C)(C)CCCCCC)cc2c1-c1c(cnn1CC)C(C)(C)O2 [compound 8, 7-(1,1-Dimethylheptyl)-1-ethyl-1,4-dihydro-4,4-dimethyl-9-octyloxychromeno[4,3-c]pyrazole] | > 40 | > 40 | – | – | –
CCCCCCCCOc1cc(C(C)(C)CCCCCC)cc2c1-c1nn(CC)cc1C(C)(C)O2 [compound 9, 7-(1,1-Dimethylheptyl)-2-ethyl-2,4-dihydro-4,4-dimethyl-9-octyloxychromeno[4,3-c]pyrazole] | > 40 | > 40 | – | – | –
CCCCCCCCCCOc1cc(C(C)(C)CCCCCC)cc2c1-c1c(cnn1CC)C(C)(C)O2 [compound 10, 9-Decyloxy-7-(1,1-dimethylheptyl)-1-ethyl-1,4-dihydro-4,4-dimethylchromeno[4,3-c]pyrazole] | > 40 | > 40 | – | – | –
CCCCCCCCCCOc1cc(C(C)(C)CCCCCC)cc2c1-c1nn(CC)cc1C(C)(C)O2 [compound 11, 9-Decyloxy-7-(1,1-dimethylheptyl)-2-ethyl-2,4-dihydro-4,4-dimethylchromeno[4,3-c]pyrazole] | > 40 | > 40 | – | – | –
CCCCCCCCCCCCOc1cc(C(C)(C)CCCCCC)cc2c1-c1c(cnn1CC)C(C)(C)O2 [compound 12, 7-(1,1-Dimethylheptyl)-9-dodecyloxy-1-ethyl-1,4-dihydro-4,4-dimethylchromeno[4,3-c]pyrazole] | > 40 | > 40 | – | – | –
CCCCCCCCCCCCOc1cc(C(C)(C)CCCCCC)cc2c1-c1nn(CC)cc1C(C)(C)O2 [compound 13, 7-(1,1-Dimethylheptyl)-9-dodecyloxy-2-ethyl-2,4-dihydro-4,4-dimethylchromeno[4,3-c]pyrazole] | > 40 | > 40 | – | – | –
CCCCCCCCCCCCCCOc1cc(C(C)(C)CCCCCC)cc2c1-c1c(cnn1CC)C(C)(C)O2 [compound 14, 7-(1,1-Dimethylheptyl)-1-ethyl-1,4-dihydro-4,4-dimethyl-9-tetradecyloxychromeno[4,3-c]pyrazole] | > 40 | > 40 | – | – | –
CCCCCCCCCCCCCCOc1cc(C(C)(C)CCCCCC)cc2c1-c1nn(CC)cc1C(C)(C)O2 [compound 15, 15] | – | – | – | – | Ki (CB1R (hCB1R) [3]): > 40 µM; Ki (CB2R (hCB2R) [4]): > 40 µM
CCCCCCCCCCCCCCCCOc1cc(C(C)(C)CCCCCC)cc2c1-c1c(cnn1CC)C(C)(C)O2 [compound 16, 7-(1,1-Dimethylheptyl)-1-ethyl-9-hexadecyloxy-1,4-dihydro-4,4-dimethylchromeno[4,3-c]pyrazole] | > 40 | > 40 | – | – | –
CCCCCCCCCCCCCCCCOc1cc(C(C)(C)CCCCCC)cc2c1-c1nn(CC)cc1C(C)(C)O2 [compound 17, 17] | – | – | – | – | Ki (CB1R (hCB1R) [3]): > 40 µM; Ki (CB2R (hCB2R) [4]): > 40 µM
CCCCCCC(C)(C)c1cc(OCCCCCCOc2cc(C(C)(C)CCCCCC)cc3c2-c2c(cnn2CC)C(C)(C)O3)c2c(c1)OC(C)(C)c1cnn(CC)c1-2 [compound 18, bivalent chromenopyrazole 18 (R1 = N1-Et, n = 4)] | – | – | > 40 | 28.1 ± 1.6 | –
CCCCCCC(C)(C)c1cc(OCCCCCCOc2cc(C(C)(C)CCCCCC)cc3c2-c2nn(CC)cc2C(C)(C)O3)c2c(c1)OC(C)(C)c1cn(CC)nc1-2 [compound 19, bivalent chromenopyrazole 19 (R1 = N2-Et, n = 4)] | – | – | > 40 | 12.4 ± 2 | –
CCCCCCC(C)(C)c1cc(OCCCCCCCCOc2cc(C(C)(C)CCCCCC)cc3c2-c2c(cnn2CC)C(C)(C)O3)c2c(c1)OC(C)(C)c1cnn(CC)c1-2 [compound 20, bivalent chromenopyrazole 20 (R1 = N1-Et, n = 6)] | – | – | > 40 | 2.2 ± 0.7 | –
CCCCCCC(C)(C)c1cc(OCCCCCCCCCCOc2cc(C(C)(C)CCCCCC)cc3c2-c2nn(CC)cc2C(C)(C)O3)c2c(c1)OC(C)(C)c1cn(CC)nc1-2 [compound 23, bivalent chromenopyrazole 23 (R1 = N2-Et, n = 8)] | – | – | > 40 | 5.8 ± 1.5 | –
CCCCCCC(C)(C)c1cc(OCCCCCCCCCCCCOc2cc(C(C)(C)CCCCCC)cc3c2-c2c(cnn2CC)C(C)(C)O3)c2c(c1)OC(C)(C)c1cnn(CC)c1-2 [compound 24, bivalent chromenopyrazole 24 (R1 = N1-Et, n = 10)] | – | – | > 40 | 0.4 ± 0.14 | EC50 (CB2R (hCB2R) [7]): 0.0631 µM
CCCCCCC(C)(C)c1cc(OCCCCCCCCCCCCOc2cc(C(C)(C)CCCCCC)cc3c2-c2nn(CC)cc2C(C)(C)O3)c2c(c1)OC(C)(C)c1cn(CC)nc1-2 [compound 25, bivalent chromenopyrazole 25 (R1 = N2-Et, n = 10)] | – | – | > 40 | 0.3 ± 0.1 | EC50 (CB2R (hCB2R) [7]): 0.0631 µM
CCCCCCC(C)(C)c1cc(OCCCCCCCCCCCCCCOc2cc(C(C)(C)CCCCCC)cc3c2-c2c(cnn2CC)C(C)(C)O3)c2c(c1)OC(C)(C)c1cnn(CC)c1-2 [compound 26] | – | – | > 40 | 0.8 ± 0.1 | EC50 (CB2R (hCB2R) [7]): 0.316 µM
CCCCCCC(C)(C)c1cc(OCCCCCCCCCCCCCCCCOc2cc(C(C)(C)CCCCCC)cc3c2-c2nn(CC)cc2C(C)(C)O3)c2c(c1)OC(C)(C)c1cn(CC)nc1-2 [compound 29, bivalent chromenopyrazole 29 (R1 = N2-Et, n = 14)] | – | – | > 40 | 2.12 ± 0.21 | –
